The source of these data is US8039504B2 (priority 2003, dated 2011).

Holding throughout (test): microbe, parasite or virus in culture
Holding throughout (type): cell-based

Experiment [1] relates to camelpox. The conditions noted are these: read-out: Camelpox EC50.
Experiment [2] relates to monkeypox virus (Zaire (V79-1-005-scab)). As to conditions: read-out: Monkeypox EC50.
Experiment [3] deals with wild type cowpox virus. As to conditions: read-out: Cowpox EC50.
Experiment [4] deals with Vaccinia virus (NYCBH). The conditions noted are these: Orthopoxvirus vaccinia, Vero, 72 h.
Setting [5] is: read-out: EC50 of reference standards in vaccinia CPE assay.

Structures are written as SMILES. Read-outs that look alike come from different tables or passages of the source.

One may read the EC50 as the midpoint of the concentration-response curve.

As to `O=C(NN1C(=O)[C@@H]2C3CCC(C4CC43)[C@@H]2C1=O)c1ccc(Br)cc1` (stereo partly shown) [Example 15, 4-Bromo-N-(3,3a,4,4a,5,5a,6,6a-octahydro-1,3-dioxo-4,6-ethanocycloprop[f]isoindol-2(1H)-yl)-benzamide], the 50% effective concentration (EC50) in experiment [1], in experiment [2], in experiment [3] and in experiment [4] (read-out: Vaccinia EC50) was less than 500 nM each time.

Turning to `O=C(NN1C(=O)[C@@H]2C3C=CC(C4CC43)[C@@H]2C1=O)c1cccc(Br)c1` (stereo partly shown) [Example 4, 3-Bromo-N-(3,3a,4,4a,5,5a,6,6a,- octahydro-1,3-dioxo-4,6-ethenocycloprop[f]isoindol-2(1H)-yl)-benzamide], the results for the EC50 in experiment [3] and in experiment [4] (read-out: Vaccinia EC50) were 1000 to 5000 nM and less than 500 nM, respectively.

Regarding `O=C(NN1C(=O)[C@@H]2C3C=CC(C3)[C@@H]2C1=O)c1ccc(Cl)cc1Cl` [Example 27, 2,4-Dichloro-N-(1,3,3a,4,7,7a-hexahydro-1,3,-dioxo-4,7-methano-2H-isoindol-2-yl)-benzamide], in experiment [4] (read-out: Vaccinia EC50), the EC50 was in the range of 500 to 1000 nM.

Take `O=C(NN1C(=O)[C@@H]2C3C=CC(C4CC43)[C@@H]2C1=O)c1ccccc1Br` (stereo partly shown) [Example 6, 2-Bromo-N-(3,3a,4,4a,5,5a,6,6a,- octahydro-1,3-dioxo-4,6-ethenocycloprop[f]isoindol-2(1H)-yl)-benzamide]: the EC50 in experiment [3] was greater than 5000 nM; in experiment [4] (read-out: Vaccinia EC50) it was 500 to 1000 nM.

On to `O=C(O)CP(=O)(O)O` [PAA, phosphonoacetic acid, reference compound], for which, in experiment [4] (setting [5]), the EC50 came out at 985000 ± 85000 nM.

`Cc1nc(C)c(C(=O)NN2C(=O)[C@@H]3C4C=CC(C5CC54)[C@@H]3C2=O)s1` (stereo partly shown) [Example 41, 2,4-Dimethyl-N-(3,3a,4,4a,5,5a,6,6a-octahydro-1,3-dioxo-4,6-ethenocycloprop[f]isoindol-2(1H)-yl)-thiazole-5-carboxamide]: the concentration for a half-maximal effect (EC50) in experiment [3] was 1000 to 5000 nM; in experiment [4] (read-out: Vaccinia EC50) it was less than 500 nM.

Regarding `O=C(NN1C(=O)[C@@H]2C3C=CC(C4CC43)[C@@H]2C1=O)c1ccncc1` (stereo partly shown) [Example 2, N-(3,3a,4,4a,5,5a,6,6a,- octahydro-1,3-dioxo-4,6-ethenocycloprop[f]isoindol-2(1H)-yl)-4-pyridinecarboxamide], the EC50 in experiment [1] is less than 500 nM; in experiment [2], less than 500 nM; in experiment [3], 1000 to 5000 nM; in experiment [4] (read-out: Vaccinia EC50), less than 500 nM.

On to `O=C(NN1C(=O)[C@@H]2C3C=CC(C4CC43)[C@@H]2C1=O)c1ccccn1` (stereo partly shown) [Example 10, N-(3,3a,4,4a,5,5a,6,6a,- octahydro-1,3-dioxo-4,6-ethenocycloprop[f]isoindol-2(1H)-yl)-2-pyridinecarboxamide], for which the EC50 in experiment [3] and in experiment [4] (read-out: Vaccinia EC50) was greater than 5000 nM throughout.

`O=C(NN1C(=O)[C@@H]2C3C=CC(C4CC43)[C@@H]2C1=O)c1ccc(Br)cc1` (stereo partly shown) [Example 3, 4-Bromo-N-(3,3a,4,4a,5,5a,6,6a,- octahydro-1,3-dioxo-4,6-ethenocycloprop[f]isoindol-2(1H)-yl)-benzamide]: the EC50 in experiment [1] is less than 500 nM; in experiment [2], less than 500 nM; in experiment [3], 500 to 1000 nM; in experiment [4] (read-out: Vaccinia EC50), less than 500 nM.

With `O=C(NN1C(=O)[C@@H]2C3C=CC(C4CC43)[C@@H]2C1=O)c1ccccc1Cl` (stereo partly shown) [Example 7, 2-Chloro-N-(3,3a,4,4a,5,5a,6,6a,- octahydro-1,3-dioxo-4,6-ethenocycloprop[f]isoindol-2(1H)-yl)-benzamide], the EC50 in experiment [4] (read-out: Vaccinia EC50) was less than 500 nM.

Regarding `O=C(Cc1ccccc1)NN1C(=O)[C@@H]2C3C=CC(C4CC43)[C@@H]2C1=O` (stereo partly shown) [Example 25, N-(3,3a,4,4a,5,5a,6,6a,- octahydro-1,3-dioxo-4,6-ethenocycloprop[f]isoindol-2(1H)-yl)-benzeneacetamide], the EC50 is greater than 5000 nM in experiment [3] and 500 to 1000 nM in experiment [4] (read-out: Vaccinia EC50).

Regarding `O=C(NN1C(=O)[C@@H]2C3CCC([C@H]4C[C@@H]34)[C@@H]2C1=O)c1ccc(C(F)(F)F)cc1` [Example 21, 4-Trifluoromethyl-N-(3,3a,4,4a,5,5a,6,6a,- octahydro-1,3-dioxo-4,6-ethanocycloprop[f]isoindol-2(1H)-yl)-benzamide], the EC50 in experiment [3] and in experiment [4] (read-out: Vaccinia EC50) was less than 500 nM throughout.

On to `O=C(NN1C(=O)[C@@H]2C3C=CC(C4CC43)[C@@H]2C1=O)c1ccc(F)cc1` (stereo partly shown) [Example 13, 4-Fluoro-N-(3,3a,4,4a,5,5a,6,6a,- octahydro-1,3-dioxo-4,6-ethenocycloprop[f]isoindol-2(1H)-yl)-benzamide], for which the EC50 is 500 to 1000 nM in experiment [3] and less than 500 nM in experiment [4] (read-out: Vaccinia EC50).

For `O=C(NN1C(=O)[C@@H]2C3C=CC(C4CC43)[C@@H]2C1=O)c1cccc(F)c1` (stereo partly shown) [Example 14, 3-Fluoro-N-(3,3a,4,4a,5,5a,6,6a,- octahydro-1,3-dioxo-4,6-ethenocycloprop[f]isoindol-2(1H)-yl)-benzamide], the EC50 is 1000 to 5000 nM in experiment [3] and less than 500 nM in experiment [4] (read-out: Vaccinia EC50).

`N#Cc1ccc(C(=O)NN2C(=O)[C@@H]3C4C=CC(C5CC54)[C@@H]3C2=O)cc1` (stereo partly shown) [Example 20, 4-Cyano-N-(3,3a,4,4a,5,5a,6,6a,- octahydro-1,3-dioxo-4,6-ethenocycloprop[f]isoindol-2(1H)-yl)-benzamide]: the EC50 in experiment [3] and in experiment [4] (read-out: Vaccinia EC50) was less than 500 nM in each case.

For `O=C(NN1C(=O)[C@@H]2C3C=CC(C3)[C@@H]2C1=O)c1ccc(Br)cc1` [Example 26, 4-Bromo-N-(1,3,3a,4,7,7a-hexahydro-1,3,-dioxo-4,7-methano-2H-isoindol-2-yl)-benzamide], the EC50 in experiment [4] (read-out: Vaccinia EC50) is less than 500 nM.

As to `COc1ccc(C(=O)NN2C(=O)[C@@H]3C4C=CC(C5CC54)[C@@H]3C2=O)cc1` (stereo partly shown) [Example 11, 4-Methoxy-N-(3,3a,4,4a,5,5a,6,6a,- octahydro-1,3-dioxo-4,6-ethenocycloprop[f]isoindol-2(1H)-yl)-benzamide], the values for the EC50 in experiment [3] and in experiment [4] (read-out: Vaccinia EC50) were greater than 5000 nM and 1000 to 5000 nM, respectively.

Consider `Nc1ccn(C[C@@H](CO)OCP(=O)(O)O)c(=O)n1` [CDV, (S)-1-(3-hydroxy-2-phosphonylmethoxypropyl)cytosine, reference compound], for which, in experiment [4] (setting [5]), the EC50 stood at 84000 ± 15000 nM.

Consider `O=C(NN1C(=O)[C@@H]2C3C=CC(C4CC43)[C@@H]2C1=O)c1ccc([N+](=O)[O-])cc1` (stereo partly shown) [Example 12, 4-Nitro-N-(3,3a,4,4a,5,5a,6,6a,- octahydro-1,3-dioxo-4,6-ethenocycloprop[f]isoindol-2(1H)-yl)-benzamide], for which the half-maximal effective concentration (EC50) in experiment [3] and in experiment [4] (read-out: Vaccinia EC50) was less than 500 nM in each case.

Regarding `O=C(NN1C(=O)[C@@H]2C3C=CC(C4CC43)[C@@H]2C1=O)c1cccc(Cl)c1` (stereo partly shown) [Example 5, 3-Chloro-N-(3,3a,4,4a, 5,5a,6,6a,- octahydro-1,3-dioxo-4,6-ethenocycloprop[f]isoindol-2(1H)-yl)-benzamide], the 50% effective concentration (EC50) in experiment [3] and in experiment [4] (read-out: Vaccinia EC50) was 500 to 1000 nM each time.

Take `O=C(NN1C(=O)C2CCCCC2C1=O)c1ccc(Br)cc1` (stereo not shown) [Example 17, 4-Bromo-N-(octahydro-1,3-dioxo-2H-isoindol-2-yl)-benzamide]: the concentration giving a half-maximal response (EC50) in experiment [3] is 1000 to 5000 nM; in experiment [4] (read-out: Vaccinia EC50), less than 500 nM.

For `O=C(NN1C(=O)[C@@H]2C3C=CC(C4CC43)[C@@H]2C1=O)c1ccc(Cl)cc1` (stereo partly shown) [Example 8, 4-Chloro-N-(3,3a,4,4a,5,5a,6,6a,- octahydro-1,3-dioxo-4,6-ethenocycloprop[f]isoindol-2(1H)-yl)-benzamide], the EC50 in experiment [3] is 500 to 1000 nM; in experiment [4] (read-out: Vaccinia EC50), less than 500 nM.

Turning to `O=C(NN1C(=O)[C@@H]2C3C=CC([C@@H]2C1=O)C31CC1)c1cccc(Br)c1` [Example 23, 3-Bromo-N-(1′,3,3′a,4′,7,7′a-hexahydro-1′,3′,dioxospiro [cyclopropane-1,8′-[4,7]methano[2H]isoindol]-2′-yl)-benzamide], the EC50 in experiment [4] (read-out: Vaccinia EC50) is less than 500 nM.

Take `O=C(NN1C(=O)[C@@H]2C3CCC(CC3)[C@@H]2C1=O)c1ccc(Br)cc1` [Example 19, 4-Bromo-N-bicyclo[2.2.2]octane-2,3-dicarboximido-benzamide]: the EC50 in experiment [3] and in experiment [4] (read-out: Vaccinia EC50) was less than 500 nM in each case.

Regarding `O=C(NN1C(=O)[C@@H]2C3CCC(CC3)[C@@H]2C1=O)c1ccc(C(F)(F)F)cc1` [Example 29, 4-Trifluoromethyl-N-bicyclo [2.2.2]octane-2,3-dicarboximido-benzamide], the half-maximal effective concentration (EC50) in experiment [3] and in experiment [4] (read-out: Vaccinia EC50) was less than 500 nM each time.

As for `Cc1ccc(C(=O)NN2C(=O)[C@@H]3C4C=CC(C5CC54)[C@@H]3C2=O)cc1` (stereo partly shown) [Example 22, 4-Methyl-N-(3,3a,4,4a,5,5a,6,6a,- octahydro-1,3-dioxo-4,6-ethanocycloprop[f]isoindol-2(1H)-yl)-benzamide], the EC50 in experiment [3] is 1000 to 5000 nM; in experiment [4] (read-out: Vaccinia EC50), less than 500 nM.

For the compound `O=C(NN1C(=O)[C@@H]2C3C=CC(CC3)[C@@H]2C1=O)c1ccc(C(F)(F)F)cc1` [Example 28, 4-Trifluoromethyl-N-bicylo [2.2.2]oct-5-ene-2,3-dicarboximido-benzamide], the 50% effective concentration (EC50) in experiment [3] and in experiment [4] (read-out: Vaccinia EC50) was less than 500 nM throughout.

In the case of `O=C(NN1C(=O)[C@@H]2C3C=CC(C4CC43)[C@@H]2C1=O)c1cccnc1` (stereo partly shown) [Example 9, N-(3,3a,4,4a,5,5a,6,6a,- octahydro-1,3-dioxo-4,6-ethenocycloprop[f]isoindol-2(1H)-yl)-3-pyridinecarboxamide], the EC50 in experiment [3] is greater than 5000 nM; in experiment [4] (read-out: Vaccinia EC50) it was less than 500 nM.

As for `O=C(NN1C(=O)[C@@H]2C3C=CC(CC3)[C@@H]2C1=O)c1ccc(Br)cc1` [Example 18, 4-Bromo-N-bicyclo[2.2.2]oct-5-ene-2,3-dicarboximido-benzamide], the 50% effective concentration (EC50) in experiment [3] and in experiment [4] (read-out: Vaccinia EC50) was less than 500 nM throughout.
